Assay results from patent US20250312258A1, “2,3-PYRROLIDINEDIONE CONJUGATES AND METHODS OF USING THEREOF” (North Carolina State University, priority 2022, published 2025).
Values after ≈ are worked out from the molar mass of the structure shown. Read-outs that look alike come from different tables or passages of the source.

Tests used:
Type in all cases: cell-based
MSSA = assay: MIC against MSSA strain panel; conditions: Staphylococcus aureus, the 4th table, read-out: MIC
ATCC 29212 E. faecalis = assay: MIC against ATCC 29212 E. faecalis; conditions: Enterococcus faecalis, ATCC29212, ATCC 29212 E. faecalis, read-out: MIC
S. pneumoniae = assay: MIC against S. pneumoniae strain panel; conditions: Streptococcus pneumoniae, read-out: MIC
Group A Strep = assay: MIC against Group A Strep strain panel; conditions: read-out: MIC
Group B Strep = assay: MIC against Group B Strep strain panel; conditions: read-out: MIC
E. coli = assay: MIC against E. coli strains; conditions: the 4th table

Work on CCC1C(c2ccc(C(F)(F)F)cc2)=C(O)C(=O)N1CCCNCCCCNC (centres unmarked) [Compound 8] yielded an MIC (MSSA; VGP16-100 MSSA) of 1 µg/mL (≈ 2.42 µM), an MIC (MSSA; VGP16-101 MSSA) of 1 µg/mL (≈ 2.42 µM) and an MIC (MSSA; VGP16-116 MSSA) of 1 µg/mL (≈ 2.42 µM). The MIC (MSSA; VGP16-117 MSSA) was 1 µg/mL (≈ 2.42 µM), the MIC (ATCC 29212 E. faecalis; the 4th table) was 1 µg/mL (≈ 2.42 µM) and the MIC (ATCC 29212 E. faecalis; the 6th table) was 4 µg/mL (≈ 9.67 µM). The MIC (S. pneumoniae; ATCC49619, ATCC 49619 S. pneumoniae, CA-MHB w/5% LHB, the 4th table) was 0.25 µg/mL (≈ 0.605 µM), the MIC (S. pneumoniae; ATCC49619, ATCC 49619 S. pneumoniae, the 7th table) was 0.25 µg/mL (≈ 0.605 µM) and the MIC (S. pneumoniae; CO314937 S. pneumoniae, CA-MHB w/5% LHB, the 4th table) was 0.25 µg/mL (≈ 0.605 µM). It also gave an MIC (S. pneumoniae; CT3-5008 S. pneumoniae, the 7th table) of 0.25 µg/mL (≈ 0.605 µM), an MIC (S. pneumoniae; CT3-5803 S. pneumoniae, the 7th table) of 0.25 µg/mL (≈ 0.605 µM) and an MIC (S. pneumoniae; CT3-8501 S. pneumoniae, the 7th table) of 0.25 µg/mL (≈ 0.605 µM). The MIC (S. pneumoniae; CT4-3048 S. pneumoniae, the 7th table) was 0.25 µg/mL (≈ 0.605 µM), the MIC (S. pneumoniae; CT4-9046 S. pneumoniae, the 7th table) was at most 0.125 µg/mL and the MIC (S. pneumoniae; CT4-9693 S. pneumoniae, the 7th table) was 0.25 µg/mL (≈ 0.605 µM). The MIC (S. pneumoniae; CT5-6541 S. pneumoniae, the 7th table) was 0.25 µg/mL (≈ 0.605 µM), the MIC (S. pneumoniae; CT5-8032 S. pneumoniae, the 7th table) was 0.25 µg/mL (≈ 0.605 µM) and the MIC (S. pneumoniae; CT5-9124 S. pneumoniae, the 7th table) was 0.25 µg/mL (≈ 0.605 µM). The MIC (S. pneumoniae; CT6-0670 S. pneumoniae, the 7th table) was 0.25 µg/mL (≈ 0.605 µM), the MIC (S. pneumoniae; CT6-7691 S. pneumoniae, the 7th table) was 0.25 µg/mL (≈ 0.605 µM) and the MIC (S. pneumoniae; CT0200-2241 S. pneumoniae, the 7th table) was 0.25 µg/mL (≈ 0.605 µM). For the same compound, the MIC (S. pneumoniae; CT0200-2730 S. pneumoniae, the 7th table) was 0.5 µg/mL (≈ 1.21 µM), the MIC (S. pneumoniae; MD77773 S. pneumoniae, CA-MHB w/5% LHB, the 4th table) was 0.25 µg/mL (≈ 0.605 µM) and the MIC (Group A Strep; 2007-11 Group A Strep, the 8th table) was 0.25 µg/mL (≈ 0.605 µM). The MIC (Group A Strep; 2007-28 Group A Strep, the 8th table) was under 0.125 µg/mL, the MIC (Group A Strep; 2007-49 Group A Strep, the 8th table) was at most 0.125 µg/mL and the MIC (Group A Strep; 2007-73 Group A Strep, the 8th table) was at most 0.125 µg/mL. For the same compound, the MIC (Group A Strep; 2007-107 Group A Strep, the 8th table) was 0.25 µg/mL (≈ 0.605 µM), the MIC (Group A Strep; 2007-1101 Group A Strep, the 8th table) was at most 0.125 µg/mL and the MIC (Group A Strep; 2008-06 Group A Strep, the 8th table) was at most 0.125 µg/mL. It also gave an MIC (Group A Strep; 2008-45 Group A Strep, the 8th table) of at most 0.125 µg/mL, an MIC (Group A Strep; 2008-818 Group A Strep, CA-MHB w/5% LHB, the 4th table) of at most 0.125 µg/mL and an MIC (Group A Strep; 2008-1565 Group A Strep, the 8th table) of 0.25 µg/mL (≈ 0.605 µM). The MIC (Group A Strep; 2008-1692 Group A Strep, the 8th table) was 0.25 µg/mL (≈ 0.605 µM), the MIC (Group A Strep; 2008-1732 Group A Strep, CA-MHB w/5% LHB, the 4th table) was at most 0.125 µg/mL and the MIC (Group A Strep; 2009-8 Group A Strep, the 8th table) was 0.25 µg/mL (≈ 0.605 µM). The MIC (Group A Strep; 2009-37 Group A Strep, CA-MHB w/5% LHB, the 4th table) was at most 0.125 µg/mL, the MIC (Group A Strep; 2009-106 Group A Strep, the 8th table) was 0.25 µg/mL (≈ 0.605 µM) and the MIC (Group A Strep; 2009-109 Group A Strep, the 8th table) was at most 0.125 µg/mL. The MIC (Group A Strep; 2009-114 Group A Strep, the 8th table) was 0.25 µg/mL (≈ 0.605 µM), the MIC (Group A Strep; 2009-136 Group A Strep, the 8th table) was at most 0.125 µg/mL and the MIC (Group B Strep; 2008-57 Group B Strep, the 9th table) was 0.25 µg/mL (≈ 0.605 µM). The MIC (Group B Strep; 2008-70 Group B Strep, the 9th table) was at most 0.125 µg/mL, the MIC (Group B Strep; 2008-87 Group B Strep, CA-MHB w/5% LHB, the 4th table) was 0.25 µg/mL (≈ 0.605 µM) and the MIC (Group B Strep; 2008-115 Group B Strep, the 9th table) was 0.25 µg/mL (≈ 0.605 µM). For the same compound, the MIC (Group B Strep; 2009-20 Group B Strep, the 9th table) was 0.25 µg/mL (≈ 0.605 µM), the MIC (Group B Strep; 2009-40 Group B Strep, the 9th table) was 0.25 µg/mL (≈ 0.605 µM) and the MIC (Group B Strep; 2009-43 Group B Strep, the 9th table) was at most 0.125 µg/mL. For the same compound, the MIC (Group B Strep; 2009-51 Group B Strep, the 9th table) was at most 0.125 µg/mL, the MIC (Group B Strep; 2009-57 Group B Strep, the 9th table) was 0.25 µg/mL (≈ 0.605 µM) and the MIC (Group B Strep; 2009-59 Group B Strep, the 9th table) was 0.25 µg/mL (≈ 0.605 µM). The MIC (Group B Strep; 2009-60 Group B Strep, the 9th table) was 0.25 µg/mL (≈ 0.605 µM), the MIC (Group B Strep; 2009-61 Group B Strep, CA-MHB w/5% LHB, the 4th table) was 0.25 µg/mL (≈ 0.605 µM) and the MIC (Group B Strep; 2009-62 Group B Strep, CA-MHB w/5% LHB, the 4th table) was at most 0.125 µg/mL. For the same compound, the MIC (Group B Strep; J4182 Group B Strep, the 9th table) was at most 0.125 µg/mL, the MIC (Group B Strep; J4183 Group B Strep, the 9th table) was 0.25 µg/mL (≈ 0.605 µM) and the MIC (Group B Strep; J4185 Group B Strep, the 9th table) was 0.25 µg/mL (≈ 0.605 µM). It also gave an MIC (Group B Strep; J4186 Group B Strep, the 9th table) of 0.25 µg/mL (≈ 0.605 µM), an MIC (Group B Strep; J4222 Group B Strep, the 9th table) of 0.25 µg/mL (≈ 0.605 µM) and an MIC (E. coli; AR-137 E. coli) of over 64 µg/mL. The MIC (E. coli; Escherichia coli, ATCC25922, ATCC 25922 E. coli, read-out: MIC) was over 64 µg/mL and the MIC (E. coli; Escherichia coli, AR-451 E. coli, read-out: MIC) was over 64 µg/mL.
